Results from paper PMC4742130 (2015).

Legend:
[1] = system: HTG22 (DNA, G4) AGGGTTAGGGTTAGGGTTAGGG; assay: SPR, Langmuir kinetic fit; conditions: 100 mM KCl; 50 mM Tris-HCl, pH 7.4, 25 °C; highest concentration 20 μM
[2] = system: F21T (DNA, G4) GGGTTAGGGTTAGGGTTAGGG; assay: FRET melting; conditions: 60 mM KCl; 10 mM Tris-HCl, pH 7.4; 0.2 μM DNA; 1 μM compound (Figure S2A)
[3] = system: HTG21 (DNA, G4) GGGTTAGGGTTAGGGTTAGGG; assay: CD titration; conditions: no added K+ or Na+; 10 mM Tris-HCl, pH 7.4, 25 °C; 5 μM DNA; 0 to 5 mol equiv; induces antiparallel G4
[4] = system: hairpin duplex DNA (DNA, hairpin) TTTTTTTTTCGAATTCGTTTTTCGAATTCG; assay: SPR, Langmuir kinetic fit; conditions: 100 mM KCl; 50 mM Tris-HCl, pH 7.4, 25 °C; highest concentration 20 μM

| KD [1] | SMILES | also measured |
| --- | --- | --- |
| 29 µM | COc1ccc2cc3[n+](cc2c1NCCCN1CCCC1)CCc1cc2c(cc1-3)OCO2 | – |
| 149 µM | COc1ccc2cc3[n+](cc2c1NCCCN1CCCCC1)CCc1cc2c(cc1-3)OCO2 | – |
| 10.8 µM | COc1ccc2cc3[n+](cc2c1NCCN1CCCCC1)CCc1cc2c(cc1-3)OCO2 | – |
| 680 µM | COc1ccc2cc3[n+](cc2c1NCCO)CCc1cc2c(cc1-3)OCO2 | – |
| 170 µM | COc1ccc2cc3[n+](cc2c1OC)CCc1cc2c(cc1-3)OCO2 | binding [2]: weak |
| – | COc1ccc2cc3[n+](cc2c1OCCCCCCCl)CCc1cc2c(cc1-3)OCO2 | binding [3]: yes; binding [1]: yes |
| 7.57 µM | COc1ccc2cc3[n+](cc2c1OCCCNC(=O)C(N)CCCCN)CCc1cc2c(cc1-3)OCO2 (stereo not shown) | KD [4]: 28900 µM |
| 10.5 µM | COc1ccc2cc3[n+](cc2c1OCCCNC(=O)C(N)CCCNC(=N)N)CCc1cc2c(cc1-3)OCO2 (stereo not shown) | KD [4]: 13900 µM |
| 133 µM | COc1ccc2cc3[n+](cc2c1OCCN)CCc1cc2c(cc1-3)OCO2 | – |
